From patent US11202836B2, “PSMA targeted conjugate compounds and uses thereof” (CASE WESTERN RESERVE UNIVERSITY, priority 2018, dated 2021)
*1 amine or outer side, *2 acyl side, *3 side chain or, on linkers, in order; H or OH if unused. Where a SMILES comes first, the peptide text is derived from it. Bridges are numbered along the chain shown (N, C = ends). Roman numbers before positions name the chains, in order. [ ]: non-standard residue; d: D form. The star is where a group is joined. Hexanoyl(6-succinimido-3yl) = O=C1CC([*:1])C(=O)N1CCCCCC(=O)[*:2]; Dolaproine = CO[C@@H]([C@@H]1CCCN1)[C@@H](C)C(=O)O; Dil = CC[C@H](C)[C@H](NC)[C@@H](CC(=O)O)OC; γGlu = O=C(O)[C@H](CCC(=O)[*:2])N[*:1]; PABC = O=C(OCc1ccc(N[*:1])cc1)[*:2]; X4 = C[C@@H](N*)[C@@H](O)c1ccccc1; X1 = O=C(C1CCC(CN[*:1])CC1)[*:2]; Cit = NC(=O)NCCC[C@H](N)C(=O)O; NMeV = CN[C@H](C(=O)O)C(C)C; CO = O=C([*:1])[*:2]; Ahx = NCCCCCC(=O)O

Legend:
[1] = test system: heterotopic PC3pip tumors; experiment: Heterotopic PC3pip tumor survival / antitumor study; assay type: in vivo
From the text: Male athymic nude mice were implanted subcutaneously with 1×10^6 of PC3pip cells under the right dorsum of the mice. When tumor size reached approximately 100 mm^3 (tumor volume=Length×width^2/2), mice received drugs through tail vein injection. […] Animals were weighed and tumor size measured every other day for 90 days. Cures were defined as no tumor present at end of the 90-day study. When tumors became too large or animals were moribund they were euthanized. Five mice were used in each group.

PC3flu cells = experiment: In vitro cytotoxicity assay (CCK-8, 72 h), PSMA-negative cells; assay type: cell-based; settings: relative to PSMA-1-VcMMAE-Cy5.5
Description: (§1) Cells (1,000/well) were seeded in 96-well culture plates the day before treatment. Cells were incubated with various concentrations of drugs for 72 hours and cell viability evaluated by CCK-8 (Dojindo). The concentration required to reach 50% of cell proliferation was determined (IC50) by GraphPad Prism 3.0.

[2] = as above; assay type: cell-based; settings: 72 hours, CCK-8; read-out: IC50, cytotoxicity to PC3flu cells
Description: as §1

[3] = In vitro cytotoxicity assay (CCK-8, 72 h), PSMA-positive cells; assay type: cell-based; settings: 72 hours
Description: as §1

PC3pip cells = experiment: as above; assay type: cell-based
Description: as §1

[4] = Maximum tolerated dose (single i.v. dose); assay type: in vivo, mice
From the text: Mice were monitored daily for 14 days.

metastatic PC3pip model = experiment: Metastatic PC3pip survival study (intracardiac GFP-PC3pip); assay type: in vivo, mice; settings: dose not stated
Description: Male athymic nude mice were injected into the left ventricle of the heart with 1×10^5 GFP labeled PC3pip cells to generate bone metastasis. One week later mice received 160 nmol/kg PSMA-1-VcMMAE-Cy5.5 or PBS every 4 days with a total of 5 doses and the progression of disease was monitored by GFP imaging. Five mice were used in each group.

orthotopic PC3pip tumors = experiment: Orthotopic PC3pip tumor survival study; assay type: in vivo, mice
Description: Surgical orthotopic tumor implantation was performed as previously reported. Tumor growth/size was monitored using Siemens Acuson […] ultrasound scanner. When the tumors were at the appropriate size (5 mm as measured by ultrasound, approximately 2 weeks) animals were given PSMA-1-VcMMAE, PSMA-1-VcMMAE-Cy5.5, or PBS every four days with a total of 5 doses. Tumors were monitored every other day by ultrasound. Each group had five mice.

[5] = 3820 nmol/kg every 4 days, 5 doses

For `CC[C@H](C)[C@@H]([C@@H](CC(=O)N1CCC[C@H]1[C@H](OC)[C@@H](C)C(=O)N[C@H](C)[C@@H](O)c1ccccc1)OC)N(C)C(=O)[C@@H](NC(=O)[C@H](C(C)C)N(C)C(=O)OCc1ccc(NC(=O)[C@H](CCCNC(N)=O)NC(=O)[C@@H](NC(=O)CCCCCN2C(=O)CC(SC[C@H](NC(=O)[C@H](CCC(=O)O)NC(=O)[C@H](CCC(=O)O)NC(=O)[C@H](CCC(=O)O)NC(=O)CCCCCNC(=O)C3CCC(CNC(=O)CC[C@H](NC(=O)N[C@@H](CCC(=O)O)C(=O)O)C(=O)O)CC3)C(=O)NCCCCCC(=O)N[C@@H](CCCCN)C(N)=O)C2=O)C(C)C)cc1)C(C)C` (stereo partly shown) [PSMA-1-VcMMAE] (I: {Glu-CO-γGlu}-[X1][Ahx]EEEC[Ahx]K-NH2 / II: V[Cit][PABC][NMeV]V[Dil][Dolaproine]-X4; linker I:6-II:N via Hexanoyl(6-succinimido-3yl); C-terminus assumed), the “inhibition of PC3pip tumor growth compared with PC3flu tumor growth” value ([1]; 955 nmol/kg) was “significantly more effective”, the animal survival [1, 5] was “all 5 mice survived the 90-day experimental time” and the “cure (tumor free at end of 90-day study)” value [1, 5] was 60%. For the same compound, the “tumor growth when given every 7 days” value ([1]; every 7 days, model not stated) was “greatly inhibited tumor growth”, the “lowest dose effectively inhibiting tumor growth” value ([1]; mouse, in vivo) was 191 nmol/kg and the body weight loss ([1]; up to highest dose tested, 3820 nmol/kg) was “No body weight loss”. The “increase of IC50 against PC3flu cells on removal of the Cy5.5 moiety” value (PC3flu cells) was 11.1 fold, the IC50 [2] was 222 nM and the IC50 ([3]; CCK-8, read-out: IC50, cytotoxicity to PC3pip cells) was 4.64 nM. The selectivity ratio ([3]; PC3flu IC50 over PC3pip IC50, read-out: selectivity, differential cytotoxicity PC3pip vs PC3flu cells) was 48, the “potency to kill PC3pip cells in the presence of PSMA-1 ligand” value (PC3pip cells; 10 μM of PSMA-1) was “reduced to the same potency to kill PC3flu cells” and the “ratio of IC50's between PC3pip and PC3flu cells” value (PC3pip cells; 72 hours) was 48.2. For the same compound, the “effect of protease inhibitor E64 on cell killing potency” value (PC3pip cells; co-incubation with 50 μM E64) was “susceptible to E64 protease inhibition”, the “increase of IC50 against PC3pip cells on removal of the Cy5.5 moiety” value (PC3pip cells; relative to PSMA-1-VcMMAE-Cy5.5) was 6.2 fold and the MTD ([4]; mouse, in vivo, iv, single dose i.v., tumor-free athymic nude mice, 14 days) was 7.64 µmol/kg. For the same compound, the “MTD relative to MMAE” value ([4]; single dose) was “more than 10 fold”, the “survival and body weight” value (metastatic PC3pip model) was “prolong animal survival time with no body weight loss” and the tumor free mice (orthotopic PC3pip tumors; 3860 nmol/kg, five mice per group) was 1 mouse. For the same compound, the “tumor growth and survival” value (orthotopic PC3pip tumors; every four days, 5 doses, significant at 1910 and 3860 nmol/kg) was “Inhibition of tumor growth and extension of animal survival time”.
